Assays:
[1] = biological target: Tyrosine-protein kinase receptor UFO (Homo sapiens) (UniProt P30530); conditions: Compound concentration 1000.0 nM
[2] = biological target: Calcium/calmodulin-dependent protein kinase type 1G (Homo sapiens) (UniProt Q96NX5); conditions: Compound concentration 1000.0 nM
[3] = biological target: SNF-related serine/threonine-protein kinase (Homo sapiens) (UniProt Q9NRH2); conditions: Compound concentration 1000.0 nM
[4] = biological target: Alpha-1B adrenergic receptor (Homo sapiens) (UniProt P35368); conditions: Compound concentration 10.0 uM
[5] = biological target: Mitotic checkpoint serine/threonine-protein kinase BUB1 (Homo sapiens) (UniProt O43683); conditions: Compound concentration 1000.0 nM
Mitotic checkpoint serine/threonine-protein kinase BUB1 (Homo sapiens), sequence (O43683 whole entry, looked up): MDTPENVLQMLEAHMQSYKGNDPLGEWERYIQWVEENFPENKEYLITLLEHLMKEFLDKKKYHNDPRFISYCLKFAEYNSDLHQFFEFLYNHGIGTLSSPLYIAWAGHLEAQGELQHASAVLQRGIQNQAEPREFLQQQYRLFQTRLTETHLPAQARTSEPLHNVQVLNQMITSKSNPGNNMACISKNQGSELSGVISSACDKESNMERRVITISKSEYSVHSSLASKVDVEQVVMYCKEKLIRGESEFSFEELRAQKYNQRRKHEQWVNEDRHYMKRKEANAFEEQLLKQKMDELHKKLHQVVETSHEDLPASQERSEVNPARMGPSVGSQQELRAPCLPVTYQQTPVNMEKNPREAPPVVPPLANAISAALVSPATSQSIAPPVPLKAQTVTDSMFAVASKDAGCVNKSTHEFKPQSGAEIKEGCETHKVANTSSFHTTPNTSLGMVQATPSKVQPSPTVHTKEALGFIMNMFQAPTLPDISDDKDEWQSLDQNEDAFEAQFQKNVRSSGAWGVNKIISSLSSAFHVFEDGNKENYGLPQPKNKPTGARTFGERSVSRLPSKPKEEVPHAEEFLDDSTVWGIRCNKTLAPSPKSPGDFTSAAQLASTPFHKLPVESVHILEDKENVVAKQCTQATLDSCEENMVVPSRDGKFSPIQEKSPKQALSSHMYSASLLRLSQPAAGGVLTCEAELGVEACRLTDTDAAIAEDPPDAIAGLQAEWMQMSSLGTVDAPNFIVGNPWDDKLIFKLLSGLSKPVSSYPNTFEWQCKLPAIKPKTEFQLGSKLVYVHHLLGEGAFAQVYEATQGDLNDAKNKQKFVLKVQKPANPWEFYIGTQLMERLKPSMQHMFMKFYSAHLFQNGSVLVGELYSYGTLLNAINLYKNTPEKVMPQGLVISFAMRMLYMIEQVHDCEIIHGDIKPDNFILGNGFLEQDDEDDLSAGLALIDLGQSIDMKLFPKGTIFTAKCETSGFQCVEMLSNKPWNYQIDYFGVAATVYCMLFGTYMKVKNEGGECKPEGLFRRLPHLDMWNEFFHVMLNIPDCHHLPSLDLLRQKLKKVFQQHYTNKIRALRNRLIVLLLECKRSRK

[6] = biological target: Cyclin-dependent kinase 7 (Homo sapiens) (UniProt P50613); conditions: Compound concentration 1000.0 nM
Cyclin-dependent kinase 7 (Homo sapiens), sequence (P50613 whole entry): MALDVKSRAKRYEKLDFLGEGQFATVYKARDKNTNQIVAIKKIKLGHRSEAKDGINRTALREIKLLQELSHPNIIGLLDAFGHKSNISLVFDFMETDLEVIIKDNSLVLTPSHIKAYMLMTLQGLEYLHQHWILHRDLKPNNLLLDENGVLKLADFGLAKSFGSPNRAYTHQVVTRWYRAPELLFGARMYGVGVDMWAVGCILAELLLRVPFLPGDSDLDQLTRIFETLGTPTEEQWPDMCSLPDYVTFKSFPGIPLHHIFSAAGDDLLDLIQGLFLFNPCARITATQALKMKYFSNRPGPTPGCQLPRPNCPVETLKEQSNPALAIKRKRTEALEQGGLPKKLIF

[7] = biological target: Focal adhesion kinase 1 (Homo sapiens) (UniProt Q05397); conditions: Compound concentration 1000.0 nM
Focal adhesion kinase 1 (Homo sapiens), sequence (Q05397 2-1052 limits assumed): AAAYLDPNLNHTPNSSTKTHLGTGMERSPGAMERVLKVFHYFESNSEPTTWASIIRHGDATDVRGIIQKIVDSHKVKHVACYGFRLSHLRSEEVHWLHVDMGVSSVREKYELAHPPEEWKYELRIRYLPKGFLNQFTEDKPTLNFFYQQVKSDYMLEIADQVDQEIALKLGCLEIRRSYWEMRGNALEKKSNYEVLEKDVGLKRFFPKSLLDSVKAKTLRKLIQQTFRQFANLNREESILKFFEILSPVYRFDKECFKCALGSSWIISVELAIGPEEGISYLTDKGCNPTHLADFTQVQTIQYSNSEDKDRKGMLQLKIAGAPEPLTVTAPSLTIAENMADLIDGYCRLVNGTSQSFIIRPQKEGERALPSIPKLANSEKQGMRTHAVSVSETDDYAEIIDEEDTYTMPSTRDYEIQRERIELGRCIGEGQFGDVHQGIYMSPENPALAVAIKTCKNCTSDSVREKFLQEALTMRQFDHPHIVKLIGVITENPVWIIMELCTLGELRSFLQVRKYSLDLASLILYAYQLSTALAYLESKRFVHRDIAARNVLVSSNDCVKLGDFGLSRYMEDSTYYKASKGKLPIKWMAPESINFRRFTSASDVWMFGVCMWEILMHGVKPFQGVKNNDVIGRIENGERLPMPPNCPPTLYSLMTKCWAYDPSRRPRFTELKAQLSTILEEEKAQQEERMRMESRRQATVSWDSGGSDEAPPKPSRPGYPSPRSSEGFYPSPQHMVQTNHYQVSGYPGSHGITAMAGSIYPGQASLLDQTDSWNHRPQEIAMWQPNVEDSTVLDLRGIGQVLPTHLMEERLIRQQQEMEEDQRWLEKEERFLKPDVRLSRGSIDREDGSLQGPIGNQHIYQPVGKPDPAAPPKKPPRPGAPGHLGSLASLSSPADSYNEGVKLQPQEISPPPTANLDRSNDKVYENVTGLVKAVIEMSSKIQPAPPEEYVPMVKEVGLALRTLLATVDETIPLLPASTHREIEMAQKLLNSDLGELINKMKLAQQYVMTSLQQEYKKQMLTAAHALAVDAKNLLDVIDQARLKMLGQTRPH

[8] = tested on: Phosphatidylinositol 4,5-bisphosphate 3-kinase catalytic subunit alpha isoform (Homo sapiens), P42336 [H1047L]; conditions: Compound concentration 1000.0 nM
Phosphatidylinositol 4,5-bisphosphate 3-kinase catalytic subunit alpha isoform (Homo sapiens), P42336 [H1047L], sequence (P42336 whole entry H1047L, canonical isoform): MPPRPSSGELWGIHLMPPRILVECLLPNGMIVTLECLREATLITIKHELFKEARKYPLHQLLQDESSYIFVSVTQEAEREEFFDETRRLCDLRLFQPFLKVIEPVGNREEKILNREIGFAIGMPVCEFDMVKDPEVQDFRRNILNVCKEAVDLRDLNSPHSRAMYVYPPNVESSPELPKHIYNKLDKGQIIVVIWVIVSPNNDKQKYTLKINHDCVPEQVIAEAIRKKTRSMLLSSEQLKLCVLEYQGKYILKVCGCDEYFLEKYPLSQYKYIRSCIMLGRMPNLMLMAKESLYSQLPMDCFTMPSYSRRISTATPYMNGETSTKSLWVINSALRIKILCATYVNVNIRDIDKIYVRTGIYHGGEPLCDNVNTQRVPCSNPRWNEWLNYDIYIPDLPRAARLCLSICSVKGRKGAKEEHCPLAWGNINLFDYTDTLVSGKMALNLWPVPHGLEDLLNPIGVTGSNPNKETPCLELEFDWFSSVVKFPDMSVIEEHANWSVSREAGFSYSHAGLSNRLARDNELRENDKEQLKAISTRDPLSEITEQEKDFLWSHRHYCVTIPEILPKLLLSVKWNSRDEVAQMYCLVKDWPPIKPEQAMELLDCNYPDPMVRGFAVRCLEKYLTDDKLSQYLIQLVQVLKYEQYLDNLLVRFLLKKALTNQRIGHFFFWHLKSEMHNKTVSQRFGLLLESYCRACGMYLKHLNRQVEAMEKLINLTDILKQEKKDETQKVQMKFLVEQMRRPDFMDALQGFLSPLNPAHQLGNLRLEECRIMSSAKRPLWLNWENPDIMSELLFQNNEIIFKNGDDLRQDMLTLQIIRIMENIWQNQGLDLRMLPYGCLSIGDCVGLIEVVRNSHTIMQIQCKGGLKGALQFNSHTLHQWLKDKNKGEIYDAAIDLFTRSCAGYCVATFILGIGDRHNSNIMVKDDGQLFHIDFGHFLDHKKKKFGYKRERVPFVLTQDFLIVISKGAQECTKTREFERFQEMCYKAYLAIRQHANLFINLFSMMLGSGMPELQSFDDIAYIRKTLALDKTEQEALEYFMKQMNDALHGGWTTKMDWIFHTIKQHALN

[9] = biological target: 5-hydroxytryptamine receptor 1E (Homo sapiens) (UniProt P28566); conditions: Compound concentration 10.0 uM
[10] = biological target: T1, Alpha-2A adrenergic receptor (Homo sapiens) (UniProt P08913); assay: ALPHA2A/H Eurofins-Panlabs selectivity data (BI); conditions: Compound concentration 10.0 uM
T1 sequence (whole entry): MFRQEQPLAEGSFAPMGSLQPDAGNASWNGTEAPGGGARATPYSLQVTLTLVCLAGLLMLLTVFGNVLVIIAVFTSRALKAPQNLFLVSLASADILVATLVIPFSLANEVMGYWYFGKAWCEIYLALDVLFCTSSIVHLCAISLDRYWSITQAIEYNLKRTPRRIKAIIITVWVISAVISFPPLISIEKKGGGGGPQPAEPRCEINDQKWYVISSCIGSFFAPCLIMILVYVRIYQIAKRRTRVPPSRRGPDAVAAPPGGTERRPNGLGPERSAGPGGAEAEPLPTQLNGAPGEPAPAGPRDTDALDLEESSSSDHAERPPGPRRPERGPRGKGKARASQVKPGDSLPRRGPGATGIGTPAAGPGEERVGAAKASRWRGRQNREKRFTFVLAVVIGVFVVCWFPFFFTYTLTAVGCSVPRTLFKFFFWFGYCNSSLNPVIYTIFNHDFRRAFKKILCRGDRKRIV

[11] = biological target: Histamine H2 receptor (Homo sapiens) (UniProt P25021); assay: H2/H Eurofins-Panlabs selectivity data (BI); conditions: Compound concentration 10.0 uM
[12] = biological target: Substance-P receptor (Homo sapiens) (UniProt P25103); assay: NK1/HU Eurofins-Panlabs selectivity data (BI); conditions: Compound concentration 10.0 uM
[13] = biological target: Cysteinyl leukotriene receptor 1 (Homo sapiens) (UniProt Q9Y271); assay: CYSLT1_HS Eurofins-Panlabs selectivity data (BI); conditions: Compound concentration 10.0 uM
[14] = biological target: Glutamate receptor ionotropic, NMDA 2A (Rattus norvegicus) (UniProt Q00959); conditions: Compound concentration 10.0 uM
[15] = biological target: Histamine H1 receptor (Homo sapiens) (UniProt P35367); assay: H1/H Eurofins-Panlabs selectivity data (BI); conditions: Compound concentration 10.0 uM
[16] = biological target: Endothelin receptor type B (Homo sapiens) (UniProt P24530); assay: ETB/HUM Eurofins-Panlabs selectivity data (BI); conditions: Compound concentration 10.0 uM
[17] = biological target: Voltage-dependent L-type calcium channel subunit alpha-1C (diltiazem site) (Rattus norvegicus, UniProt P22002); assay: CA+/DILSI/RA Eurofins-Panlabs selectivity data (BI); conditions: compound concentration 10 uM, read-out: % Ctrl
[18] = biological target: Glutamate receptor ionotropic, NMDA 1 (Rattus norvegicus) (UniProt P35439); assay: NMDAGLSI/RA Eurofins-Panlabs selectivity data (BI); conditions: Compound concentration 10.0 uM
[19] = biological target: T2, Muscarinic acetylcholine receptor M1 (Homo sapiens) (UniProt P11229); assay: M1/HU Eurofins-Panlabs selectivity data (BI); conditions: Compound concentration 10.0 uM
T2 sequence (whole entry): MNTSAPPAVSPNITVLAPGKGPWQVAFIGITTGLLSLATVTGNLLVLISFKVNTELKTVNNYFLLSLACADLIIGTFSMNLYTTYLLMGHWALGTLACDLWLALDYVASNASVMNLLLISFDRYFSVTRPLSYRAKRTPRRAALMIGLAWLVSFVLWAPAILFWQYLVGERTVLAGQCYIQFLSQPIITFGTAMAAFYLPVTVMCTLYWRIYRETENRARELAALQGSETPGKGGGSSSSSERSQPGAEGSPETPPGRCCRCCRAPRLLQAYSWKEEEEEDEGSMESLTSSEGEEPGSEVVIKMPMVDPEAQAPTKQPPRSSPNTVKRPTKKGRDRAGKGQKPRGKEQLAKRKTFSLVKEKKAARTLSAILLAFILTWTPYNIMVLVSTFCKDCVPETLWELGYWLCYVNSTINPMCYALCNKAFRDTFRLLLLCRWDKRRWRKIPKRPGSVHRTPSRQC

[20] = biological target: Adenosine receptor A3 (Homo sapiens) (UniProt P0DMS8); assay: A3/H Eurofins-Panlabs selectivity data (BI); conditions: Compound concentration 10.0 uM
[21] = biological target: Mu-type opioid receptor (Homo sapiens) (UniProt P35372); assay: MU/HU Eurofins-Panlabs selectivity data (BI); conditions: Compound concentration 10.0 uM
[22] = biological target: Beta-1 adrenergic receptor (Homo sapiens) (UniProt P08588); conditions: Compound concentration 10.0 uM
[23] = biological target: Sodium channel alpha subunit (site 2) (Homo sapiens, UniProt P35498+P35499+Q01118+Q14524+Q15858+Q99250+Q9NY46+Q9UI33+Q9UQD0+Q9Y5Y9); assay: NA+/SITE2AG Eurofins-Panlabs selectivity data (BI); type: protein assay, Cavia porcellus; design: mode of action antagonist; conditions: guinea pig; compound concentration 30 uM; read-out: % Ctrl
[24] = biological target: T3, 5-hydroxytryptamine receptor 3A (Homo sapiens) (UniProt P46098); assay: 5HT3/HU Eurofins-Panlabs selectivity data (BI); conditions: Compound concentration 10.0 uM
T3 sequence (whole entry): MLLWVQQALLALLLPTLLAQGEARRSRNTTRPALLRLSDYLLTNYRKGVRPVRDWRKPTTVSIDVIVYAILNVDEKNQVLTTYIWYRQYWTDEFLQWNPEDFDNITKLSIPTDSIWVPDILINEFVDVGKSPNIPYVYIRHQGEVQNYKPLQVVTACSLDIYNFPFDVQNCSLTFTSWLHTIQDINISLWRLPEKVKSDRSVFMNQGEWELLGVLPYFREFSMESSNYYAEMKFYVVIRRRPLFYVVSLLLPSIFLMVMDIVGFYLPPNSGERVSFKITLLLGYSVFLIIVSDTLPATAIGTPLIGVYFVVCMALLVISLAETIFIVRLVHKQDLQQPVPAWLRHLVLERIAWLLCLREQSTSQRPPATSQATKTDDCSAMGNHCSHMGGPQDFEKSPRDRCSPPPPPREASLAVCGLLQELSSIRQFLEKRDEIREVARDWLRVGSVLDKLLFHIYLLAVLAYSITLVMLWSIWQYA

[25] = biological target: Beta-2 adrenergic receptor (Homo sapiens) (UniProt P07550); assay: BETA2/HU Eurofins-Panlabs selectivity data (BI); conditions: Compound concentration 10.0 uM

SNF-related serine/threonine-protein kinase (Homo sapiens), sequence (Q9NRH2 whole entry): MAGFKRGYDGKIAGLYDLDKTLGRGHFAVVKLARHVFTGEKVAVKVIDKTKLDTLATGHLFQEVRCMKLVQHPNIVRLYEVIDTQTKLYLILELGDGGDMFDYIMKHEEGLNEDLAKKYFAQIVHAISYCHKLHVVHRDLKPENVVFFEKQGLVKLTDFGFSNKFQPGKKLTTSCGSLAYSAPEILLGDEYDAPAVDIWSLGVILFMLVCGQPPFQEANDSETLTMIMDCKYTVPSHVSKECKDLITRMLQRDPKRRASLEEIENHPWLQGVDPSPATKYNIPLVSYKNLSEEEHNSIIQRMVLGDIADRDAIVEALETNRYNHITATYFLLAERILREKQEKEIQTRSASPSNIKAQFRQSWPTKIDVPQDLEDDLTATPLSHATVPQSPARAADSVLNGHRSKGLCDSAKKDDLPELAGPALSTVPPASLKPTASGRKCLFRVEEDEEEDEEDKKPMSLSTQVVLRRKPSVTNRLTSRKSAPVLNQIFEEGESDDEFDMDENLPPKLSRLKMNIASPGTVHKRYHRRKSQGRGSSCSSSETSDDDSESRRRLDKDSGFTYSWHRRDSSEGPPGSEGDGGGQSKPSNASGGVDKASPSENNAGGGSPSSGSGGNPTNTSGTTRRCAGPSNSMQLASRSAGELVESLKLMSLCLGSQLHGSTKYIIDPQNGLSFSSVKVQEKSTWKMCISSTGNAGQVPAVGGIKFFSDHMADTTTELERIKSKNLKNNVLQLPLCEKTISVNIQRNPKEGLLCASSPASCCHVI
Calcium/calmodulin-dependent protein kinase type 1G (Homo sapiens), sequence (Q96NX5 whole entry): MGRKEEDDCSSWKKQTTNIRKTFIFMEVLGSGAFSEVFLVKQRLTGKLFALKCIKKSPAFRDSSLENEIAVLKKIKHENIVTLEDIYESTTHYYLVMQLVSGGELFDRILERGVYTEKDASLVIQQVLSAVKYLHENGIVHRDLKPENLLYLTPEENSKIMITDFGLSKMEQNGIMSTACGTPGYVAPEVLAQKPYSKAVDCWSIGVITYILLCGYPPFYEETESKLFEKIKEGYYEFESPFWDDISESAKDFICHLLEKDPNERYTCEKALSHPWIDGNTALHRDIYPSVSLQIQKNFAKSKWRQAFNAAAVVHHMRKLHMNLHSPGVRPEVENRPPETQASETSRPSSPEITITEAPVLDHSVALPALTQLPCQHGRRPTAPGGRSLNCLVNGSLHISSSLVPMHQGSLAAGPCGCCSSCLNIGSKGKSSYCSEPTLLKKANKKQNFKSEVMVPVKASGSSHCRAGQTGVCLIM

`CC(=O)N1CCC(c2ccc(C(=O)NC3=NCCN3)cc2C(F)(F)F)CC1` [BI 0054] showed a residual activity [1] of 100%, a residual activity [2] of 100% and a residual activity [3] of 98%. For the same molecule, the inhibition [4] was -0.596%, the residual activity [5] was 100% and the residual activity [6] was 89%. For the same molecule, the residual activity [7] was 17% and the residual activity [8] was 100%.
Work on `CC(=O)N1CCC(c2ccc(C(=O)NC(=N)N)cc2C(F)(F)F)CC1` [BI 9627] yielded an inhibition [9] of -9.59%, a residual activity [10] of 93% and a residual activity [11] of 103%. The residual activity [12] was 100%, the residual activity [13] was 95% and the residual activity [14] was 96%. The residual activity [15] was 98%, the residual activity [16] was 114% and the residual activity [1] was 100%. For the same molecule, the residual activity [2] was 100%, the activity at 10 µM [17] was 68% (not active) and the residual activity [3] was 100%. For the same molecule, the residual activity [18] was 109%, the residual activity [5] was 85% and the residual activity [19] was 61%. It also gave a residual activity [20] of 105%, a residual activity [21] of 91% and a residual activity [6] of 86%. The residual activity [7] was 100%, the residual activity [8] was 100% and the inhibition [22] was -9.29%. For the same molecule, the activity at 30 µM [23] was 100% (not active), the residual activity [24] was 98% and the residual activity [25] was 102%.

— ChEMBL document CHEMBL4507279, “Data for DCP probe BI-9627” (2021)
